These results are taken from patent publication US20220306647A1, “NOVEL INDOLE-2-CARBOXAMIDES ACTIVE AGAINST THE HEPATITUS B VIRUS (HBV)” (AICURIS GMBH & CO. KG, priority 2019, published 2022).

In this experiment the target is T1, HBV core protein (C-terminal truncated core protein, 149 amino acids of the N-terminal assembly domain, BODIPY-FL labelled) (UniProt P03146).
T1 construct: fused on or other part: A single cysteine added after residue 149, at position 150; It carries the BODIPY-FL maleimide label
T1 sequence (P03146 whole entry, the tested form may be a part): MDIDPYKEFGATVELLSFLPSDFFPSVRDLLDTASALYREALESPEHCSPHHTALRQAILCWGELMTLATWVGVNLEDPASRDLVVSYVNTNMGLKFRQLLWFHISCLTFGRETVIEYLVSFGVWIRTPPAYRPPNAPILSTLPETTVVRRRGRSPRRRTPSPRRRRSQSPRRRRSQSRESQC
Put plainly: Biochemical capsid assembly assay (fluorescence quenching). The settings on record: assembly started with NaCl, fluorescence read after 6 min, read-out: Assembly activity. The protocol: The screening for assembly effector activity was done based on a fluorescence quenching assay published by Zlotnick et al. (2007). The C-terminal truncated core protein containing 149 amino acids of the N-terminal assembly domain fused to a unique cysteine residue at position 150 and was expressed in E. coli using the pET expression system (Merck Chemicals, Darmstadt). Purification of core dimer protein was performed using a sequence of size exclusion chromatography steps. In brief, the cell pellet from 1 L BL21 (DE3) Rosetta2 culture expressing the coding sequence of core protein cloned NdeI/XhoI into expression plasmid pET21b was treated for 1 h on ice with a native lysis buffer (Qproteome Bacterial Protein Prep Kit; Qiagen, Hilden). After a centrifugation step the supernatant was precipitated during 2 h stirring on ice with 0.23 g/ml of solid ammonium sulfate. Following further centrifugation the resulting pellet was resolved in buffer A (100 mM Tris, pH 7.5; 100 mM NaCl; 2 mM DTT) and was subsequently loaded onto a buffer A equilibrated CaptoCore 700 column (GE HealthCare, Frankfurt). The column flow through containing the assembled HBV capsid was dialyzed against buffer N (50 mM NaHCO3 pH 9.6; 5 mM DTT) before urea was added to a final concentration of 3M to dissociate the capsid into core dimers for 1.5 h on ice. The protein solution was then loaded onto a 1L Sephacryl S300 column. After elution with buffer N core dimer containing fractions were identified by SDS-PAGE and subsequently pooled and dialyzed against 50 mM HEPES pH 7.5; 5 mM DTT. To improve the assembly capacity of the purified core dimers a second round of assembly and disassembly starting with the addition of 5 M NaCl and including the size exclusion chromatography steps described above was performed. From the last chromatography step core dimer containing fractions were pooled and stored in aliquots at concentrations between 1.5 to 2.0 mg/ml at −80° C.
Immediately before labelling the core protein was reduced by adding freshly prepared DTT in a final concentration of 20 mM. After 40 min incubation on ice storage buffer and DTT was removed using a Sephadex G-25 column (GE HealthCare, Frankfurt) and 50 mM HEPES, pH 7.5. For labelling 1.6 mg/ml core protein was incubated at 4° C. and darkness overnight with BODIPY-FL maleimide (Invitrogen, Karlsruhe) in a final concentration of 1 mM. After labelling the free dye was removed by an additional desalting step using a Sephadex G-25 column. Labelled core dimers were stored in aliquots at 4° C. In the dimeric state the fluorescence signal of the labelled core protein is high and is quenched during the assembly of the core dimers to high molecular capsid structures. The screening assay was performed in black 384 well microtiter plates in a total assay volume of 10 μl using 50 mM HEPES pH 7.5 and 1.0 to 2.0 μM labelled core protein. Each screening compound was added in 8 different concentrations using a 0.5 log-unit serial dilution starting at a final concentration of 100 μM, 31.6 μM or 10 μM, In any case the DMSO concentration over the entire microtiter plate was 0.5%. The assembly reaction was started by the injection of NaCl to a final concentration of […] which induces the assembly process to approximately 25% of the maximal quenched signal. 6 min after starting the reaction the fluorescence signal was measured using a Clariostar plate reader (BMG Labtech, Ortenberg) with an excitation of 477 nm and an emission of 525 nm. As 100% and 0% assembly control HEPES buffer containing 2.5 M and 0 M NaCl was used. Experiments were performed thrice in triplicates. EC50 values were calculated by non-linear regression analysis using the Graph Pad Prism 6 software (GraphPad Software, La Jolla, USA).
As for `O=C(O)c1ccc(C2(NC(=O)c3cnn4c3CN(C(=O)c3cc5ccccc5[nH]3)CC4)CC2)nc1` [Example 19, 6-{1-[5-(1H-indole-2-carbonyl)-4H,5H,6H,7H-pyrazolo[1,5-a]pyrazine-3-amido]cyclopropyl}pyridine-3-carboxylic acid], the IC50 is under 100 µM. Consider `O=C(O)c1cnc(C2(NC(=O)c3cnn4c3CN(C(=O)c3cc5ccccc5[nH]3)CC4)CC2)nc1` [Example 20, 2-{1-[5-(1H-indole-2-carbonyl)-4H,5H,6H,7H-pyrazolo[1,5-a]pyrazine-3-amido]cyclopropyl}pyrimidine-5-carboxylic acid], for which the IC50 was under 5 µM. For `O=C(O)c1cnc(C2(NC(=O)c3cnn4c3CN(C(=O)c3cc5ccccc5[nH]3)CC4)CC2)nc1` [Example 29, 2-{1-[5-(1H-indole-2-carbonyl)-4H,5H,6H,7H-pyrazolo[1,5-a]pyrazine-3-amido]cyclopropyl}pyrimidine-5-carboxylic acid], the IC50 was under 100 µM. On to `O=C(O)c1cccc(C2(NC(=O)c3cnn4c3CN(C(=O)c3cc5ccccc5[nH]3)CC4)CC2)c1` [Example 32, 3-{1-[5-(1H-indole-2-carbonyl)-4H,5H,6H,7H-pyrazolo[1,5-a]pyrazine-3-amido]cyclopropyl}benzoic acid], for which the IC50 is under 5 µM.

Regarding `CN(C(=O)c1cnn2c1CN(C(=O)c1cc3ccccc3[nH]1)CC2)C1(c2nccc(C(=O)O)n2)CC1` [Example 36, 2-{1-[N-methyl-5-(1H-indole-2-carbonyl)-4H,5H,6H,7H-pyrazolo[1,5-a]pyrazine-3-amido]cyclopropyl}pyrimidine-4-carboxylic acid], the IC50 is under 5 µM.

Take `CN(C(=O)c1[nH]nc2c1CN(C(=O)c1cc3ccccc3[nH]1)CC2)C1(c2ccc(C(=O)O)cc2)CC1` [Example 44, 4-{1-[N-methyl-5-(1H-indole-2-carbonyl)-2H,4H,5H,6H,7H-pyrazolo[4,3-c]pyridine-3-amido]cyclopropyl}benzoic acid]: the IC50 was under 5 µM. Take `CN(C(=O)c1[nH]nc2c1CN(C(=O)c1cc3ccccc3[nH]1)CC2)C1(c2ncc(C(=O)O)cn2)CC1` [Example 56, 2-{1-[N-methyl-5-(1H-indole-2-carbonyl)-2H,4H,5H,6H,7H-pyrazolo[4,3-c]pyridine-3-amido]cyclopropyl}pyrimidine-5-carboxylic acid]: the IC50 was 5 to 10 µM. Take `CN(C(=O)c1cnn2c1CN(C(=O)c1cc3c(F)c(F)ccc3[nH]1)CC2)C1(c2ncc(C(=O)O)cn2)CC1` [Example 58, 2-{1-[N-methyl-5-(4,5-difluoro-1H-indole-2-carbonyl)-4H,5H,6H,7H-pyrazolo[1,5-a]pyrazine-3-amido]cyclopropyl}pyrimidine-5-carboxylic acid]: the IC50 is under 5 µM. The figure for `Cc1c(F)ccc2[nH]c(C(=O)N3CCn4ncc(C(=O)N(C)C5(c6ncc(C(=O)O)cn6)CC5)c4C3)cc12` [Example 59, 2-{1-[N-methyl-5-(5-fluoro-4-methyl-1H-indole-2-carbonyl)-4H,5H,6H,7H-pyrazolo[1,5-a]pyrazine-3-amido]cyclopropyl}pyrimidine-5-carboxylic acid] is under 5 µM.

As to `CN(C(=O)c1[nH]nc2c1CN(C(=O)c1cc3c(F)c(F)ccc3[nH]1)CC2)C1(c2ccc(C(=O)O)cc2)CC1` [Example 65, 4-{1-[N-methyl-5-(4,5-difluoro-1H-indole-2-carbonyl)-2H,4H,5H,6H,7H-pyrazolo[4,3-c]pyridine-3-amido]cyclopropyl}benzoic acid], the IC50 is under 5 µM. For `Cc1c(F)ccc2[nH]c(C(=O)N3CCc4n[nH]c(C(=O)N(C)C5(c6ccc(C(=O)O)cc6)CC5)c4C3)cc12` [Example 66, 4-{1-[N-methyl-5-(5-fluoro-4-methyl-1H-indole-2-carbonyl)-2H,4H,5H,6H,7H-pyrazolo[4,3-c]pyridine-3-amido]cyclopropyl}benzoic acid], the IC50 was under 5 µM. For the compound `Cc1cc(F)cc2[nH]c(C(=O)N3CCc4n[nH]c(C(=O)N(C)C5(c6ccc(C(=O)O)cc6)CC5)c4C3)cc12` [Example 67, 4-{1-[N-methyl-5-(6-fluoro-4-methyl-1H-indole-2-carbonyl)-2H,4H,5H,6H,7H-pyrazolo[4,3-c]pyridine-3-amido]cyclopropyl}benzoic acid], the IC50 is under 5 µM. The figure for `CN(C(=O)c1[nH]nc2c1CN(C(=O)c1cc3c(Cl)cccc3[nH]1)CC2)C1(c2ncc(C(=O)O)cn2)CC1` [Example 70, 2-{1-[N-methyl-5-(4-chloro-1H-indole-2-carbonyl)-2H,4H,5H,6H,7H-pyrazolo[4,3-c]pyridine-3-amido]cyclopropyl}pyrimidine-5-carboxylic acid] is under 5 µM; for `CN(C(=O)c1[nH]nc2c1CN(C(=O)c1cc3c(F)c(F)ccc3[nH]1)CC2)C1(c2ncc(C(=O)O)cn2)CC1` [Example 71, 2-{1-[N-methyl-5-(4,5-difluoro-1H-indole-2-carbonyl)-2H,4H,5H,6H,7H-pyrazolo[4,3-c]pyridine-3-amido]cyclopropyl}pyrimidine-5-carboxylic acid] it is under 5 µM; for `Cc1c(F)ccc2[nH]c(C(=O)N3CCc4n[nH]c(C(=O)N(C)C5(c6ncc(C(=O)O)cn6)CC5)c4C3)cc12` [Example 72, 2-{1-[N-methyl-5-(5-fluoro-4-methyl-1H-indole-2-carbonyl)-2H,4H,5H,6H,7H-pyrazolo[4,3-c]pyridine-3-amido]cyclopropyl}pyrimidine-5-carboxylic acid] it is under 5 µM. Consider `Cc1cc(F)cc2[nH]c(C(=O)N3CCc4n[nH]c(C(=O)N(C)C5(c6ncc(C(=O)O)cn6)CC5)c4C3)cc12` [Example 73, 2-{1-[N-methyl-5-(6-fluoro-4-methyl-1H-indole-2-carbonyl)-2H,4H,5H,6H,7H-pyrazolo[4,3-c]pyridine-3-amido]cyclopropyl}pyrimidine-5-carboxylic acid], for which the IC50 was under 5 µM.

Turning to `CN(C(=O)c1cnn2c1CN(C(=O)c1cc3ccccc3[nH]1)CC2)C1(COc2ccc(C(=O)O)cc2Cl)CC1` [Example 101, 3-chloro-4-({1-[N-methyl-5-(1H-indole-2-carbonyl)-4H,5H,6H,7H-pyrazolo[1,5-a]pyrazine-3-amido]cyclopropyl}methoxy)benzoic acid], the IC50 is under 5 µM.

Consider `O=C(c1cc2ccccc2[nH]1)N1CCc2noc(C(=O)N3CCC(O)CC34CC4)c2C1` (centres unmarked) [Example 102, 4-[5-(1H-indole-2-carbonyl)-4H,5H,6H,7H-[1,2]oxazolo[4,3-c]pyridine-3-carbonyl]-4-azaspiro[2.5]octan-7-ol], for which the IC50 is under 5 µM. The figure for `C[C@@H](NC(=O)c1noc2c1CN(C(=O)c1cc3cc(F)c(F)cc3[nH]1)CC2)C(F)(F)F` [Example 111, 5-(5,6-difluoro-1H-indole-2-carbonyl)-N-[(2R)-1,1,1-trifluoropropan-2-yl]-4H,5H,6H,7H-[1,2]oxazolo[4,5-c]pyridine-3-carboxamide] is under 5 µM. As to `C[C@@H](NC(=O)c1noc2c1CN(C(=O)c1cc3c(F)cc(F)cc3[nH]1)CC2)C(F)(F)F` [Example 112, 5-(4,6-difluoro-1H-indole-2-carbonyl)-N-[(2R)-1,1,1-trifluoropropan-2-yl]-4H,5H,6H,7H-[1,2]oxazolo[4,5-c]pyridine-3-carboxamide], the IC50 was under 5 µM.
